Source: US4035485A, “Polypeptides” (Imperial Chemical Industries Limited, priority 1974, dated 1977)

Legend:
[1] = test system: secretion of acidic gastric juice in dogs provided with a Heidenhain pouch and whose gastric secretion is stimulated with histamine; experiment: Inhibition of histamine-stimulated gastric acid secretion in Heidenhain pouch dogs, intravenous injection; assay type: in vivo, dog; settings: for biological activity (inhibition of the secretion of acidic gastric juice), in words: dog, histamine-stimulated gastric secretion; for biological potency (amount causing a 50-70% inhibition of acid secretion): intravenous injection, dog with Heidenhain pouch, secretion stimulated to 60-80% of maximum by histamine infusion, expressed as a range of doses; for biological activity, inhibition of gastric secretion: single determination, single intravenous injection
Description: This test is used to determine the biological potency of the products, which is defined as the amount of the products which, on administration by intravenous injection to a dog provided with a Heidenhain pouch and whose secretion of gastric acid is stimulated to 60-80- % of the maximum level of secretion by an infusion of histamine, causes a 50-70% inhibition of that acid secretion. Some variation in the biological potency of a particular sample is found if it is measured in different dogs or on different occasions and so the result is best expressed as a range of doses. The physiological effect of inhibiting the secretion of acidic gastric juice is of value in the treatment of duodenal ulcers, and under the test conditions, no serious toxic effects were observed. The polypeptides of the invention also show ulcer healing properties in a standard test.
In the case of each process involving the use of a chromatography column, the eluate was collected in fractions consisting of a defined number of drops using an Ultrorac LKB 7,000 fraction collector (LKB Instruments Ltd., Croydon, Surrey, U.K.) and these fractions assayed for peptide material by measuring the U.V. absorption at 280 mμ. The material was then collected in fractions and the material assayed for biological activity as follows:
Dogs were prepared with separated denervated fundic pouches, and a subcutaneous infusion of histamine was used to stimulate gastric secretion to approximately 60-80% of the maximal rate [usually an infusion of a solution of 600 μg. of histamine (expressed as base) in 0.48 ml. per hour is adequate]. A known amount of test material was dissolved in isotonic saline and, when the dog was secreting gastric juice at a steady rate, a single intravenous injection of this material was administered.
The biological potency may be determined from the results obtained at several different doses.

[2] = Water solubility of the isolated lyophilized polypeptide; assay type: physicochemical; settings: lyophilized white acidic polypeptide

3: polypeptide of Example 2 in which the cystine residues had been reduced to cysteine residues (NSDSECPLSHDGYCLHDGVCMYIEALDKYACNCVVGYIGERCQYRD; Epidermal growth factor cystines reduced; UniProt P01133 971-1016, looked up, fragment) [Example 3]
biological activity (inhibition of the secretion of acidic gastric juice), in words [1]: potent inhibitors

Example 2: 46-residue single-chain polypeptide with three internal disulphide bonds, from the 47-residue polypeptide by carboxypeptidase A cleavage of C-terminal leucine (NSDSECPLSHDGYCLHDGVCMYIEALDKYACNCVVGYIGERCQYRD; Epidermal growth factor; UniProt P01133 971-1016, looked up, fragment)
solubility in water [2]: water soluble
biological activity (inhibition of the secretion of acidic gastric juice), in words [1]: biologically active
biological activity (inhibition of the secretion of acidic gastric juice), in words ([1]; listed as polypeptide of the invention): potent inhibitors
biological potency (amount causing a 50-70% inhibition of acid secretion) [1]: 0.2 to 1 μg./kg.
biological activity, inhibition of gastric secretion ([1]; dose equivalent to 0.6 μg./kg. of starting material): 42%

material in fractions 38-52: peptide cleaved from β-urogastrone by AM protease; ratios Glu 1, Leu 1, Lys 1, Trp 2, Arg 1; N-terminal lysine (KWWELR; Epidermal growth factor; UniProt P01133 1018-1023, looked up, fragment)
biological activity (inhibition of the secretion of acidic gastric juice), in words [1]: biologically inactive

polypeptide having 47 amino-acid residues: 47-residue single-chain polypeptide with three disulphide bonds obtained by incubating β-urogastrone with AM protease (NSDSECPLSHDGYCLHDGVCMYIEALDKYACNCVVGYIGERCQYRDL; Epidermal growth factor; UniProt P01133 971-1017, looked up, fragment)
solubility in water [2]: water soluble
biological activity (inhibition of the secretion of acidic gastric juice), in words [1]: biologically active
biological potency (amount causing a 50-70% inhibition of acid secretion) [1]: 0.2 to 1 μg./kg.
biological activity, inhibition of gastric secretion ([1]; dose equivalent to 0.7 μg./kg. of starting material): 30%
